≈ marks a conversion by molar mass, not a printed value.
Legend:
[1] = Lipophilicity, log D of the compound by chromatographic method; type: physicochemical
[2] = target: T1, ADP-ribosyl cyclase/cyclic ADP-ribose hydrolase 1 (Homo sapiens, UniProt P28907); experiment: Inhibition of recombinant human CD38 extracellular domain expressed in Pichia pastoris using NAD as substrate pretreated for 30 mins followed by substrate addition measured after 15 to 45 mins
T1 sequence (P28907 whole entry): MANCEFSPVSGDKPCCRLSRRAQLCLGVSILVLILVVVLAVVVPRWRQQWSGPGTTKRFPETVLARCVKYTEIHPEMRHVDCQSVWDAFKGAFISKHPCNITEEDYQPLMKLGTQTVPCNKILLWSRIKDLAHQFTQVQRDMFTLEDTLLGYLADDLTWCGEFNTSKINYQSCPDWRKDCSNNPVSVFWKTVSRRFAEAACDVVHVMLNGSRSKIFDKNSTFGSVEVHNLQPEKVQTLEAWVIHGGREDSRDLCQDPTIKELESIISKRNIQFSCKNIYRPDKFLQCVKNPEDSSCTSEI

Cytochrome P450 3A4 = Cytochrome P450 3A4 (Homo sapiens, UniProt P08684); experiment: Inhibition of CYP3A4 (unknown origin); type: ADME
Chain of Cytochrome P450 3A4 (P08684 whole entry): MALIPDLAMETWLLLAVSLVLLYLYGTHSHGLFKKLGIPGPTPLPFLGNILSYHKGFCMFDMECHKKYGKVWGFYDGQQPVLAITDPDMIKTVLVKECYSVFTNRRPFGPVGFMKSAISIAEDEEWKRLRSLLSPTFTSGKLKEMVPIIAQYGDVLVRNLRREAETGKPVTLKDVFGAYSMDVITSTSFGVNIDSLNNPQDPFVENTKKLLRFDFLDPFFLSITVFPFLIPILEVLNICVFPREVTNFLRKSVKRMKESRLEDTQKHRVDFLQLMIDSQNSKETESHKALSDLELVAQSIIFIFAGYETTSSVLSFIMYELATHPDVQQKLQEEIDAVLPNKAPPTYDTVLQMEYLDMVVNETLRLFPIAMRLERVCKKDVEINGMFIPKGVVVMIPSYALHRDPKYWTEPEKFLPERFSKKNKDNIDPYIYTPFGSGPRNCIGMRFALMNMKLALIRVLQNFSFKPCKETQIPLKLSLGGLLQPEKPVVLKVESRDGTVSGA

[3] = target: Voltage-gated inwardly rectifying potassium channel KCNH2 (Homo sapiens, UniProt Q12809); experiment: Inhibition of human ERG
Chain of Voltage-gated inwardly rectifying potassium channel KCNH2 (Q12809 whole entry): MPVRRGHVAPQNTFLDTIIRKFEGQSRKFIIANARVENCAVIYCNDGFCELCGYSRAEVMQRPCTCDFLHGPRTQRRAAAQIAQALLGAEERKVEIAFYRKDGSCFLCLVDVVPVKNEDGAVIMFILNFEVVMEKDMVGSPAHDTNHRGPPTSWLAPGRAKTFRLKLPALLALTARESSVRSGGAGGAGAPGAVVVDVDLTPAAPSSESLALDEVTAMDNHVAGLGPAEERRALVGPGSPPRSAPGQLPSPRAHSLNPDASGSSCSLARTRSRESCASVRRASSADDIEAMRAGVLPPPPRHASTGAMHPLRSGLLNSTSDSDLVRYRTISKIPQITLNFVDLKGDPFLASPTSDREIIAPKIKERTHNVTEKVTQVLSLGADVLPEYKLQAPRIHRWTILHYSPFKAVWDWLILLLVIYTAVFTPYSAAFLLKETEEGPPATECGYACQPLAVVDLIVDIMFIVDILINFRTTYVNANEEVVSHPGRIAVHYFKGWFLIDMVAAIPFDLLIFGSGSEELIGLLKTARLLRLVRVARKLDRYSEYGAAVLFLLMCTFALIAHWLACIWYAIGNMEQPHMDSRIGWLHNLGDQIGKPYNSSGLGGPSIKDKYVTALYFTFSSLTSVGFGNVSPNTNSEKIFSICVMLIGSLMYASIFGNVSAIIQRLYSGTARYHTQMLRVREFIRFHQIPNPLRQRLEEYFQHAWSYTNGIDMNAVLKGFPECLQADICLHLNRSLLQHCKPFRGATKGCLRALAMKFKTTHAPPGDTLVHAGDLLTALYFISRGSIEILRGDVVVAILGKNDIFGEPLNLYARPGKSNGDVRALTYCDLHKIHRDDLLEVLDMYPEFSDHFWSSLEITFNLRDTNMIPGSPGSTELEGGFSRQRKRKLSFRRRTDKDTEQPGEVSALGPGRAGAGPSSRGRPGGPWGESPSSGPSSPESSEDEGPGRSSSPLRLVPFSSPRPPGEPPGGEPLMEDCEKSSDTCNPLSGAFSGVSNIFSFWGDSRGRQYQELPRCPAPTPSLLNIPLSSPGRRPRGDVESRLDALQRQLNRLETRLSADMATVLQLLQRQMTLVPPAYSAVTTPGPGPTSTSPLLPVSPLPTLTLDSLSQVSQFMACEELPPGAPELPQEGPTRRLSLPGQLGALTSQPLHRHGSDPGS

[4] = Aqueous solubility of the compound in FaSSIF; type: physicochemical
[5] = Oral bioavailability in mouse at 30 mg/kg; type: ADME, organism-based; conditions: in vivo
[6] = Volume of distribution at steady state in mouse at 2 mg/kg, iv; type: ADME, organism-based; conditions: in vivo, read-out: Vdss
[7] = Permeability of the compound by PAMPA; type: ADME; conditions: read-out: permeability
[8] = Clearance in mouse at 2 mg/kg, iv; type: ADME, organism-based; conditions: in vivo
Mus musculus = experiment: Dose normalized AUC in mouse at 30 mg/kg, po; type: ADME, organism-based; conditions: in vivo
[9] = Half life in mouse at 2 mg/kg, iv; type: ADME, organism-based; conditions: in vivo

| SMILES | IC50 [2] [nM] | other results |
| --- | --- | --- |
| Cc1cc(NCc2c(F)cccc2C(F)(F)F)c2cccc(C(N)=O)c2n1 |  | chromatographic logD [1]: 5.1 |
| CC1(C)c2[nH]nc(N)c2CN1C1=NC(NCc2c(F)cccc2C(F)(F)F)c2cccc(C(N)=O)c2N1 (configuration not stated) | 20 |  |
| NC(=O)c1cccc2c1NC(N1Cc3c(N)n[nH]c3C13CCCC3)=NC2NCc1c(F)cccc1C(F)(F)F (configuration not stated) | 17 |  |
| Cc1n[nH]c2c1CN(C1=NC(NCc3c(F)cccc3C(F)(F)F)c3cccc(C(N)=O)c3N1)[C@H]2C (some centres not stated) | 170 |  |
| C[C@H]1c2[nH]nc(N)c2CN1C1=NC(NCc2c(F)cccc2C(F)(F)F)c2cccc(C(N)=O)c2N1 (some centres not stated) | 310 |  |
| NC(=O)c1cccc2c1NC(N1Cc3[nH]nc(N)c3C1)=NC2NCc1c(F)cccc1C(F)(F)F (configuration not stated) | 110 |  |
| NC(=O)c1cccc2c1NC(N1Cc3c(N)n[nH]c3C13CCC3)=NC2NCc1c(F)cccc1C(F)(F)F (configuration not stated) | 7.8 |  |
| NC(=O)c1cccc2c(NCc3c(F)cccc3C(F)(F)F)nc(NCc3cn[nH]c3)nc12 | 450 |  |
| NC(=O)c1cccc2c1NC(N1Cc3[nH]nc(C(F)(F)F)c3C1)=NC2NCc1c(F)cccc1C(F)(F)F (configuration not stated) | 4100 |  |
| Cc1n[nH]c2c1CN(C1=NC(NCc3c(F)cccc3C(F)(F)F)c3cccc(C(N)=O)c3N1)[C@@H]2C (some centres not stated) | 21 |  |
| CN(Cc1ccn[nH]1)c1nc(NCc2c(F)cccc2C(F)(F)F)c2cccc(C(N)=O)c2n1 | 1900 |  |
| C[C@@H]1c2cn[nH]c2CN1C1=NC(NCc2c(F)cccc2C(F)(F)F)c2cccc(C(N)=O)c2N1 (some centres not stated) | 330 |  |
| NC(=O)c1cccc2c1NC(N1CCCc3cn[nH]c3C1)=NC2NCc1c(F)cccc1C(F)(F)F (configuration not stated) | 19000 |  |
| CC[C@H]1c2[nH]ncc2CN1C1=NC(NCc2c(F)cccc2C(F)(F)F)c2cccc(C(N)=O)c2N1 (some centres not stated) | 370 |  |
| Cc1n[nH]c2c1CN(C1=NC(NCc3c(F)cccc3C(F)(F)F)c3cccc(C(N)=O)c3N1)C2 (configuration not stated) | 42 | IC50 (Cytochrome P450 3A4): 631 nM; IC50 [3]: 12600 nM |
| C[C@@H]1c2[nH]nc(N)c2CN1C1=NC(NCc2c(F)cccc2C(F)(F)F)c2cccc(C(N)=O)c2N1 (some centres not stated) | 45 |  |
| NC(=O)c1cccc2c(NCc3c(F)cccc3C(F)(F)F)nc(N3CCc4[nH]ncc4C3)nc12 | 630 |  |
| CC(=O)c1n[nH]c2c1CN(C1=NC(NCc3c(F)cccc3C(F)(F)F)c3cccc(C(N)=O)c3N1)C2 (configuration not stated) | 140 |  |
| CC[C@@H]1c2[nH]ncc2CN1C1=NC(NCc2c(F)cccc2C(F)(F)F)c2cccc(C(N)=O)c2N1 (some centres not stated) | 71 |  |
| NC(=O)c1cccc2c(NCc3c(F)cccc3C(F)(F)F)nc(NCc3nnn[nH]3)nc12 | 8000 |  |
| NC(=O)c1cccc2c(NCc3c(F)cccc3C(F)(F)F)nc(NCc3ccon3)nc12 | 5500 |  |

| SMILES | IC50 [2] [nM] | other results |
| --- | --- | --- |
| Cn1cc2c(n1)CN(C1Nc3c(C(N)=O)cccc3C(NCc3c(F)cccc3C(F)(F)F)N1)C2 (configuration not stated) | 160 |  |
| NC(=O)c1cccc2c1NC(N1Cc3[nH][nH]c(=O)c3C1)=NC2NCc1c(F)cccc1C(F)(F)F (configuration not stated) | 1600 |  |
| C[C@H](O)c1n[nH]c2c1CN(C1=NC(NCc3c(F)cccc3C(F)(F)F)c3cccc(C(N)=O)c3N1)C2 (some centres not stated) | 110 | solubility [4]: 12 µg/mL (≈ 23.2 µM) |
| NC(=O)c1cccc2c(NCc3c(F)cccc3C(F)(F)F)nc(NCc3cnco3)nc12 | 3400 |  |
| C[C@H]1c2n[nH]cc2CN1C1=NC(NCc2c(F)cccc2C(F)(F)F)c2cccc(C(N)=O)c2N1 (some centres not stated) | 410 |  |
| CCc1n[nH]c2c1CN(C1=NC(NCc3c(F)cccc3C(F)(F)F)c3cccc(C(N)=O)c3N1)C2 (configuration not stated) | 83 |  |
| NC(=O)c1cccc2c(NCc3c(F)cccc3C(F)(F)F)nc(NCc3ccn[nH]3)nc12 | 2300 |  |
| NC(=O)c1cccc2c(NCc3c(F)cccc3C(F)(F)F)cc(NCc3cn[nH]c3)nc12 | 72 |  |
| NC(=O)c1cccc2c(NCc3c(F)cccc3C(F)(F)F)nc(N3Cc4cn[nH]c4C3)nc12 | 92 | solubility [4]: 6 µg/mL (≈ 12.7 µM) |
| NC(=O)c1cccc2c(NCc3c(F)cccc3C(F)(F)F)nc(NCc3c[nH]cn3)nc12 | 1600 |  |
| NC(=O)c1c(C(F)(F)F)ccc2c(NCc3c(F)cccc3C(F)(F)F)nc(NCc3ncco3)nc12 | 4200 |  |
| Cn1ncc2c1CN(C1=NC(NCc3c(F)cccc3C(F)(F)F)c3cccc(C(N)=O)c3N1)C2 (configuration not stated) | 82 | solubility [4]: 2 µg/mL (≈ 4.1 µM) |
| NC(=O)c1cccc2c(NCc3c(F)cccc3C(F)(F)F)nc(N3CCc4cn[nH]c4C3)nc12 | 1900 |  |
| C[C@@H]1c2n[nH]cc2CN1C1=NC(NCc2c(F)cccc2C(F)(F)F)c2cccc(C(N)=O)c2N1 (some centres not stated) | 51 | bioavailability [5]: 69%; solubility [4]: 34 µg/mL (≈ 69.7 µM); Vd [6]: 2.7 L/kg; IC50 (Cytochrome P450 3A4): 158 nM; Papp [7]: 14.7 ×10⁻⁶ cm/s; clearance [8]: 37 mL/min/kg; AUC/dose (Mus musculus): 327 ng·h/mL/(mg/kg); half-life [9]: 1.4 h; IC50 [3]: 3160 nM |
| NC(=O)c1cccc2c(NCc3c(F)cccc3C(F)(F)F)nc(NCc3nc[nH]n3)nc12 | 4300 |  |
| NC(=O)c1cccc2c(NCc3c(F)cccc3C(F)(F)F)nc(NCc3ncc[nH]3)nc12 | 6800 |  |
| C[C@@H](O)c1n[nH]c2c1CN(C1=NC(NCc3c(F)cccc3C(F)(F)F)c3cccc(C(N)=O)c3N1)C2 (some centres not stated) | 230 | solubility [4]: 11 µg/mL (≈ 21.3 µM) |
| Cc1n[nH]cc1CNc1nc(NCc2c(F)cccc2C(F)(F)F)c2cccc(C(N)=O)c2n1 | 620 |  |
| C[C@H]1c2cn[nH]c2CN1C1=NC(NCc2c(F)cccc2C(F)(F)F)c2cccc(C(N)=O)c2N1 (some centres not stated) | 2500 |  |
| NC(=O)c1cccc2c1NC(N1Cc3c(N)n[nH]c3C13CC3)=NC2NCc1c(F)cccc1C(F)(F)F (configuration not stated) | 4 | chromatographic logD [1]: 3.9 |

Source: ChEMBL document CHEMBL4219173, “2,4-Diamino-8-quinazoline carboxamides as novel, potent inhibitors of the NAD hydrolyzing enzyme CD38: Exploration of the 2-position structure-activity relationships” (Bioorg Med Chem, 2018)
